What all share (type): cell-based
For one experiment, the system named is Hela. The experiment is described as follows: Antiproliferation assay (MTS), HeLa cells. As to conditions: Homo sapiens, 96 h. The method, then:
(§1) Cells were grown at 37° C. in a humidified atmosphere consisting of 5% CO2 and 95% air.
(§2) Antiproliferation Assays: Cells were plated in a 96-well culture plate with 2000-8000 cells per well. The compounds were prepared in DMSO and used to treat cells in a final concentration of less than 1% DMSO. Compound treatment started after overnight incubation of cells (T0). […] Compound was added to the plate in triplicate wells, and the plates were then incubated for 96 hours. DMSO (compound diluent) was also included and added to the plate in control wells. Cell viability was then determined by MTS assay using the CellTiter 96® aqueous non-radioactive cell proliferation assay system (Promega, Madison, Wis. 53711 USA). A plate reader (Vmax, Molecular Devices, Sunnyvale Calif. 94089 USA) was used to determine the optical densities, and the results were used to deduce concentration-response curves. […] The results were analyzed using linear regression software (GraphPad Prism 5; GraphPad Software Inc. La Jolla Calif. 92037 USA).

Another experiment deals with K562. The experiment is described as follows: Antiproliferation assay (MTS), K562 cells. As to conditions: Homo sapiens, K562, 96 h. On the procedure:
as §1, §2

Another experiment deals with MDA-MB-468. The experiment is described as follows: Antiproliferation assay (MTS), MDA-MB-468 cells. As to conditions: Homo sapiens, MDA-MB-468, 96 h. The method, then: as §1, §2
The next experiment concerns MDA-MB-231. The experiment is described as follows: Antiproliferation assay (MTS), MDA-MB-231 cells. Conditions: Homo sapiens, MDA-MB-231, 96 h. The method, then: as §1, §2
Where [1] appears, read: Table 1, read-out: Antiproliferative IC50 Hela.
Setting [2] is: Table 1, read-out: Antiproliferative IC50 K562.
[3] abbreviates: Table 1, read-out: Antiproliferative IC50 MDA-MB-468.
Setting [4] is: read-out: Antiproliferative IC50 MDA-MB-231, Table 1.

Like-named read-outs stand apart in the source and are kept apart here.

For the compound `COc1ccc(Oc2cc(C)c(-c3csc(NC(=O)c4ccncc4)n3)c(F)c2)cc1` [Compound 30, N-{4-(2-Fluoro-4-(4-methoxyphenoxy)-6-methylphenyl)thiazol-2-yl}isonicotinamide], the IC50 stood at 108 nM with Hela (setting [1]), 107 nM with K562 (setting [2]), 143 nM with MDA-MB-468 (setting [3]) and 270 nM in the experiment with MDA-MB-231 (setting [4]).

Turning to `COCCOc1cnc(S(=O)(=O)c2cc(C)c(-c3csc(NC(=O)c4ccncc4)n3)c(C)c2)cn1` [Compound 31, N-(4-{4-(5-(2-Methoxyethoxy)pyrazin-2-ylsulfonyl)-2,6-dimethylphenyl}thiazol-2-yl)isonicotinamide], the IC50 was 957 nM in the experiment with Hela (setting [1]), 635 nM in the experiment with K562 (setting [2]), 1000 nM with MDA-MB-468 (setting [3]) and 1120 nM with MDA-MB-231 (setting [4]).

For the compound `COCCOc1cnc([S+]([O-])c2cc(C)c(-c3csc(NC(=O)c4ccncc4)n3)c(C)c2)cn1` (stereo not drawn) [Compound 32, N-(4-{4-(5-(2-Methoxyethoxy)pyrazin-2-ylsulfinyl)-2,6-dimethylphenyl}thiazol-2-yl)isonicotinamide], the IC50 with Hela (setting [1]) was found to be 1120 nM; in the experiment with K562 (setting [2]), 734 nM; in the experiment with MDA-MB-468 (setting [3]) it was 1280 nM; in the experiment with MDA-MB-231 (setting [4]), 1700 nM.

For `COc1ccc(Sc2cc(C)c(-c3csc(NC(=O)c4ccncc4)n3)c(C)c2)cc1OC` [Compound 33, N-{4-(4-(3,4-Dimethoxyphenylsulfanyl)-2,6-dimethylphenyl)thiazol-2-yl}isonicotinamide], the IC50 in the experiment with Hela (setting [1]) was found to be 57.1 nM; with K562 (setting [2]), 28.3 nM; with MDA-MB-468 (setting [3]), 73 nM; in the experiment with MDA-MB-231 (setting [4]) it was 49.4 nM.

In the case of `Cc1cc(Sc2ccc(O)cc2)cc(C)c1-c1csc(NC(=O)c2ccncc2)n1` [Compound 34, N-{4-(4-(4-Hydroxyphenylsulfanyl)-2,6-dimethylphenyl)thiazol-2-yl}isonicotinamide], the IC50 in the experiment with Hela (setting [1]) was found to be 302 nM; in the experiment on K562 (setting [2]), 89.4 nM; in the experiment on MDA-MB-468 (setting [3]) it was 279 nM; in the experiment with MDA-MB-231 (setting [4]), 184 nM.

On to `Cc1cc(Sc2ccc(N)cc2)cc(C)c1-c1csc(NC(=O)c2ccncc2)n1` [Compound 35, N-{4-(4-(4-Aminophenylsulfanyl)-2,6-dimethylphenyl)thiazol-2-yl}isonicotinamide], for which the IC50 with Hela (setting [1]) is 43.8 nM; in the experiment on K562 (setting [2]), 26.1 nM; in the experiment with MDA-MB-468 (setting [3]) it was 95.8 nM; in the experiment with MDA-MB-231 (setting [4]), 46.9 nM.

On to `CC(=O)Nc1ccc(Sc2cc(C)c(-c3csc(NC(=O)c4ccncc4)n3)c(C)c2)cc1` [Compound 36, N-{4-(4-(4-Acetylaminophenylsulfanyl)-2,6-dimethylphenyl)thiazol-2-yl}isonicotinamide], for which the IC50 was determined as 24.5 nM with Hela (setting [1]), 18.9 nM in the experiment with K562 (setting [2]), 62.4 nM in the experiment with MDA-MB-468 (setting [3]) and 44.3 nM in the experiment on MDA-MB-231 (setting [4]).

Consider `Cc1cc(Sc2ccc(Br)cc2)cc(C)c1-c1csc(NC(=O)c2ccncc2)n1` [Compound 37, N-{4-(4-(4-Bromophenylsulfanyl)-2,6-dimethylphenyl)thiazol-2-yl}isonicotinamide], for which the IC50 in the experiment with Hela (setting [1]) is 243 nM; in the experiment with K562 (setting [2]) it was 62.5 nM; in the experiment with MDA-MB-468 (setting [3]), 226 nM; in the experiment on MDA-MB-231 (setting [4]), 148 nM.

For the compound `Cc1cc(Sc2cccc(Cl)c2)cc(C)c1-c1csc(NC(=O)c2ccncc2)n1` [Compound 38, N-{4-(4-(3-Chlorophenylsulfanyl)-2,6-dimethylphenyl)thiazol-2-yl}isonicotinamide], the IC50 with Hela (setting [1]) was 500 nM; in the experiment on K562 (setting [2]) it was 128 nM; in the experiment on MDA-MB-468 (setting [3]), 352 nM; in the experiment with MDA-MB-231 (setting [4]) it was 197 nM.

As for `Cc1cc(Sc2ccccc2Cl)cc(C)c1-c1csc(NC(=O)c2ccncc2)n1` [Compound 39, N-{4-(4-(2-Chlorophenylsulfanyl)-2,6-dimethylphenyl)thiazol-2-yl}isonicotinamide], the IC50 amounted to 211 nM in the experiment with Hela (setting [1]), 36.2 nM with K562 (setting [2]), 73.9 nM with MDA-MB-468 (setting [3]) and 55.9 nM in the experiment on MDA-MB-231 (setting [4]).

With `Cc1cc(Sc2ccc(Cl)cc2)cc(C)c1-c1csc(NC(=O)c2ccncc2)n1` [Compound 40, N-{4-(4-(4-Chlorophenylsulfanyl)-2,6-dimethylphenyl)thiazol-2-yl}isonicotinamide], the IC50 in the experiment with Hela (setting [1]) amounted to 585 nM; in the experiment with K562 (setting [2]), 93.5 nM; in the experiment on MDA-MB-468 (setting [3]), 124 nM; with MDA-MB-231 (setting [4]), 200 nM.

On to `Cc1cc(Sc2nccn2C)cc(C)c1-c1csc(NC(=O)c2ccncc2)n1` [Compound 41, N-(4-(2,6-Dimethyl-4-((1-methyl-1H-imidazol-2-yl)thio)phenyl)thiazol-2-yl)isonicotinamide], for which the IC50 came out at 61.5 nM with Hela (setting [1]), 31.1 nM in the experiment on K562 (setting [2]), 62.9 nM in the experiment with MDA-MB-468 (setting [3]) and 86.1 nM in the experiment with MDA-MB-231 (setting [4]).

For `Cc1cc(Sc2ccc(N(S(C)(=O)=O)S(C)(=O)=O)cc2)cc(C)c1-c1csc(NC(=O)c2ccncc2)n1` [Compound 42, N-(4-(2,6-Dimethyl-4-((4-(N-(methylsulfonyl)methylsulfonamido)phenyl)thio)phenyl)thiazol-2-yl)isonicotinamide], the IC50 with Hela (setting [1]) was 167 nM; in the experiment with K562 (setting [2]), 59.3 nM; in the experiment with MDA-MB-468 (setting [3]), 121 nM; with MDA-MB-231 (setting [4]), 76.6 nM.

Regarding `Cc1cc(Sc2ccc(NS(C)(=O)=O)cc2)cc(C)c1-c1csc(NC(=O)c2ccncc2)n1` [Compound 43, N-(4-(2,6-Dimethyl-4-((4-(methylsulfonamido)phenyl)thio)phenyl)thiazol-2-yl)isonicotinamide], the IC50 with Hela (setting [1]) is 66.4 nM; with K562 (setting [2]), 26.6 nM; in the experiment on MDA-MB-468 (setting [3]), 49.4 nM; in the experiment with MDA-MB-231 (setting [4]) it was 53.1 nM.

Turning to `Cc1cc(C)c(-c2csc(NC(=O)Cc3ccncc3)n2)c(C)c1` [Compound 47, N-(4-Mesitylthiazol-2-yl)-2-(pyridin-4-yl)acetamide], the IC50 in the experiment on Hela (setting [1]) worked out at 619 nM; with K562 (setting [2]), 382 nM; with MDA-MB-468 (setting [3]), 304 nM; in the experiment on MDA-MB-231 (setting [4]), 312 nM.

Turning to `COc1ccc(Oc2cc(C)c(-c3csc(NC(=O)c4ccncc4)n3)c(C)c2)cc1` [Compound 48, N-(4-(4-(4-Methoxyphenoxy)-2,6-dimethylphenyl)thiazol-2-yl)isonicotinamide], the IC50 came out at 48.6 nM in the experiment with Hela (setting [1]), 34.9 nM in the experiment with K562 (setting [2]), 37 nM in the experiment with MDA-MB-468 (setting [3]) and 32 nM with MDA-MB-231 (setting [4]).

For `COc1ccc(Oc2cc(C)c(-c3csc(NC(=O)c4ccnc(F)c4)n3)c(C)c2)cc1` [Compound 49, 2-Fluoro-N-(4-(4-(4-methoxyphenoxy)-2,6-dimethylphenyl)thiazol-2-yl)isonicotinamide], the IC50 with Hela (setting [1]) worked out at 42.7 nM; in the experiment with K562 (setting [2]), 16.3 nM; in the experiment on MDA-MB-468 (setting [3]), 40 nM; in the experiment with MDA-MB-231 (setting [4]), 20 nM.

Turning to `Cc1cc(C)c(-c2csc(NC(=O)Cc3ccncc3)n2)c(C)c1` [II-93, N-(4-Mesitylthiazol-2-yl)-2-(pyridin-4-yl)acetamide], the IC50 came out at 620 nM in the experiment on Hela (Table 2, read-out: Antiproliferative IC50 Hela); 380 nM in the experiment with K562 (Table 2, read-out: Antiproliferative IC50 K562); 300 nM in the experiment on MDA-MB-468 (Table 2, read-out: Antiproliferative IC50 MDA-MB-468); 310 nM in the experiment on MDA-MB-231 (read-out: Antiproliferative IC50 MDA-MB-231, Table 2).

Usually IC50 stands for the concentration that inhibits the measured activity by half.

Source of the values: patent US8999983B2, “Modulators of Hec1 activity and methods therefor” (Taivex Therapeutics Corporation, priority 2011, dated 2015).
